Common to all, as to type: cell-based
The test system of one assay is Parental (Ba/F3). Briefly: Ba/F3 cell proliferation inhibition. To be noted: BaF3; 72 hours, Cell Counting Kit-8. Here is the method:
(§1) […] lymphocyte cells, Parental (Ba/F3) and T315I-Bcr-Abl (Ba/F3) were seeded in 96-well plates at the density of 1×10^4/90 μL/well. A culture solution containing 9 concentrations (0.015 to 100 μM) of each example compound serially diluted in 3 folds or DMSO (control) were added to the plate ([…]) to a final concentration of 0 to 10 μM. The plate was incubated in a 37° C. CO2 incubator for 72 hours.
(§2) After incubation for 72 hours, the plate treated with the compound was treated with Cell Counting Kit-8 (Dojindo Molecular Technologies, Inc) solution at the concentration of 10 μL/well, and then mixed well. Then, the plate was incubated in a CO2 incubator at 37° C. for 2 hours, and absorbance at 450 nm was measured with a microplate reader. Data were expressed as percentage compared to vehicle treated cells and GI50 values were calculated using GraphPad Prism 5.0 (GraphPad software Inc., San Diego) […].

In a further assay the test system is T315I-Bcr-Abl (Ba/F3). Briefly: Ba/F3 cell proliferation inhibition. To be noted: BaF3; 72 hours, Cell Counting Kit-8. Here is the method: as §1, §2
Background: Tetrazolium dyes change colour on reduction, which living cells bring about.

The test system of another assay is TCCS cells. Briefly: human CML cell proliferation inhibition. To be noted: 72 hours, Cell Counting Kit-8. Here is the method: (§3) In order to evaluate the therapeutic effect of the compound according to the present invention on chronic myelogenous leukemia (CML), the following experiment was performed, and the results are shown in Table 6 below. Inhibitory activity to Bcr-Abl kinase was evaluated through the experiment using TCCS and KOPM28 cells, and inhibitory activity to T315I-Bcr-Abl kinase was evaluated through the experiment using T315I-TCCS and T315I-KOPM28 cells.
(§4) Human chronic myelogenous leukemia (CML) cells used in the experiment were TCCS, T315I-TCCS, KOPM28 and T315I-KOPM28, and the four types of cells were provided by University of Yamanashi.
(§5) Four types of human CML cells were each seeded in 96-well plates at the density of 1×10^4/90 μL/well. A culture solution containing 9 concentrations (0.000256 to 100 μM) of each example compound serially diluted in 5 folds or DMSO (control) were added to the plate (10 μL/well) to a final concentration of 0 to 10 μM. The plate was incubated in a 37° C. CO2 incubator for 72 hours.
(§6) After incubation for 72 hours, the plate treated with the compound was treated with Cell Counting Kit-8 (Dojindo Molecular Technologies, Inc) solution at the concentration of 10 μL/well, and then mixed well. Then, the plate was incubated in a CO2 incubator at 37° C. for 2 hours, and absorbance at 450 nm was measured with a microplate reader. Data were expressed as percentage compared to vehicle treated cells and GI50 values were calculated using GraphPad Prism 8.0 (GraphPad software Inc., San Diego).

A further assay deals with T315I-TCCS cells. Briefly: human CML cell proliferation inhibition. To be noted: 72 hours, Cell Counting Kit-8. Here is the method: as §3, §4, §5, §6
For another assay, the system named is T315I-KOPM28 cells. Briefly: human CML cell proliferation inhibition. To be noted: 72 hours, Cell Counting Kit-8. Here is the method: as §3, §4, §5, §6
For a further assay, the system named is KOPM28 cells. Briefly: human CML cell proliferation inhibition. The note with it: 72 hours, Cell Counting Kit-8. Here is the method: as §3, §4, §5, §6

On to `Cc1cc(Cl)c(C(=O)Nc2cc(CN3CCN(CCO)CC3)cc(C(C)(C)C#N)c2)cc1C#Cc1cnc2c(Nc3cnn(C)c3)cccn12` [Example 16, 2-chloro-N-(3-(2-cyanopropan-2-yl)-5-((4-(2-hydroxyethyl)piperazin-1-yl)methyl)phenyl)-4-methyl-5-((8-((1-methyl-1H-pyrazol-4-yl)amino)imidazo[1,2-a]pyridin-3-yl)ethynyl)benzamide], for which the GI50 (usually the concentration at which growth is held to half of that of the control) in the assay with Parental (Ba/F3) is > 5000 nM; with T315I-Bcr-Abl (Ba/F3), 50 to 500 nM; in the assay on TCCS cells, < 10 nM; in the assay with T315I-TCCS cells it was 100 nM; with T315I-KOPM28 cells, 100 nM; in the assay with KOPM28 cells, < 10 nM.
For `Cc1cc(F)c(C(=O)Nc2cc(-c3ccncc3)cc(C(C)(C)C#N)c2)cc1C#Cc1cnc2c(Nc3cnn(C)c3)cccn12` [Example 17, N-(3-(2-cyanopropan-2-yl)-5-(pyridin-4-yl)phenyl)-2-fluoro-4-methyl-5-((8-((1-methyl-1H-pyrazol-4-yl)amino)imidazo[1,2-a]pyridin-3-yl)ethynyl)benzamide], the GI50 was > 5000 nM with Parental (Ba/F3); 50 to 500 nM in the assay on T315I-Bcr-Abl (Ba/F3); < 10 nM with TCCS cells; 100 nM with T315I-TCCS cells; 100 nM in the assay with T315I-KOPM28 cells; < 10 nM in the assay with KOPM28 cells.
Regarding `Cc1cc(F)c(C(=O)Nc2cc(-c3cccnc3)cc(C(C)(C)C#N)c2)cc1C#Cc1cnc2c(Nc3cnn(C)c3)cccn12` [Example 18, N-(3-(2-cyanopropan-2-yl)-5-(pyridin-3-yl)phenyl)-2-fluoro-4-methyl-5-((8-((1-methyl-1H-pyrazol-4-yl)amino)imidazo[1,2-a]pyridin-3-yl)ethynyl)benzamide], the GI50 with Parental (Ba/F3) is > 5000 nM; in the assay with T315I-Bcr-Abl (Ba/F3), 50 to 500 nM; with TCCS cells, < 10 nM; in the assay on T315I-TCCS cells, 100 nM; with T315I-KOPM28 cells, 100 nM; in the assay with KOPM28 cells, < 10 nM.
On to `Cc1cc(F)c(C(=O)Nc2cc(-c3cnn(C)c3)cc(C(C)(C)C#N)c2)cc1C#Cc1cnc2c(Nc3cnn(C)c3)cccn12` [Example 19, N-(3-(2-cyanopropan-2-yl)-5-(1-methyl-1H-pyrazol-4-yl)phenyl)-2-fluoro-4-methyl-5-((8-((1-methyl-1H-pyrazol-4-yl)amino)imidazo[1,2-a]pyridin-3-yl)ethynyl)benzamide], for which the GI50 with Parental (Ba/F3) was > 5000 nM; in the assay on T315I-Bcr-Abl (Ba/F3), 50 to 500 nM; in the assay with TCCS cells it was < 10 nM; in the assay with T315I-TCCS cells, 100 nM; in the assay on T315I-KOPM28 cells, > 100 nM; with KOPM28 cells, < 10 nM.
`Cc1cc(F)c(C(=O)Nc2cc(N3CCN(C)CC3)cc(C(C)(C)C#N)c2)cc1C#Cc1cnc2c(Nc3cnn(C)c3)cccn12` [Example 20, N-(3-(2-cyanopropan-2-yl)-5-(4-methylpiperazin-1-yl)phenyl)-2-fluoro-4-methyl-5-((8-((1-methyl-1H-pyrazol-4-yl)amino)imidazo[1,2-a]pyridin-3-yl)ethynyl)benzamide]: the GI50 in the assay with Parental (Ba/F3) was 500 to 5000 nM; in the assay on T315I-Bcr-Abl (Ba/F3), 50 to 500 nM; in the assay with TCCS cells, < 10 nM; in the assay on T315I-TCCS cells, 100 nM; in the assay with T315I-KOPM28 cells, > 100 nM; in the assay on KOPM28 cells it was < 10 nM.
In the case of `Cc1cc(F)c(C(=O)Nc2cc(N3CCCN(C)CC3)cc(C(C)(C)C#N)c2)cc1C#Cc1cnc2c(Nc3cnn(C)c3)cccn12` [Example 21, N-(3-(2-cyanopropan-2-yl)-5-(4-methyl-1,4-diazepan-1-yl)phenyl)-2-fluoro-4-methyl-5-((8-((1-methyl-1H-pyrazol-4-yl)amino)imidazo[1,2-a]pyridin-3-yl)ethynyl)benzamide], the GI50 in the assay with Parental (Ba/F3) is 500 to 5000 nM; in the assay on T315I-Bcr-Abl (Ba/F3), 50 to 500 nM; in the assay with TCCS cells, < 10 nM; in the assay with T315I-TCCS cells, 100 nM; in the assay with T315I-KOPM28 cells it was > 100 nM; with KOPM28 cells, < 10 nM.
On to `Cc1cc(F)c(C(=O)Nc2cc(N(C)CCN(C)C)cc(C(C)(C)C#N)c2)cc1C#Cc1cnc2c(Nc3cnn(C)c3)cccn12` [Example 22, N-(3-(2-cyanopropan-2-yl)-5-((2-(dimethylamino)ethyl)(methyl)amino)phenyl)-2-fluoro-4-methyl-5-((8-((1-methyl-1H-pyrazol-4-yl)amino)imidazo[1,2-a]pyridin-3-yl)ethynyl)benzamide], for which the GI50 in the assay with Parental (Ba/F3) is 500 to 5000 nM; with T315I-Bcr-Abl (Ba/F3), 50 to 500 nM; in the assay on TCCS cells, < 10 nM; with T315I-TCCS cells, 100 nM; in the assay on T315I-KOPM28 cells, 100 nM; with KOPM28 cells, < 10 nM.
With `Cc1cc(F)c(C(=O)Nc2cc(N(C)CCCN(C)C)cc(C(C)(C)C#N)c2)cc1C#Cc1cnc2c(Nc3cnn(C)c3)cccn12` [Example 23, N-(3-(2-cyanopropan-2-yl)-5-((3-(dimethylamino)propyl)(methyl)amino)phenyl)-2-fluoro-4-methyl-5-((8-((1-methyl-1H-pyrazol-4-yl)amino)imidazo[1,2-a]pyridin-3-yl)ethynyl)benzamide], the GI50 in the assay on Parental (Ba/F3) was 500 to 5000 nM; in the assay with T315I-Bcr-Abl (Ba/F3), 50 to 500 nM; in the assay on TCCS cells it was < 10 nM; in the assay with T315I-TCCS cells it was > 100 nM; with T315I-KOPM28 cells it was > 100 nM; with KOPM28 cells, < 10 nM.
Turning to `Cc1cc(F)c(C(=O)Nc2cc(N3CCN(C)C(=O)C3)cc(C(C)(C)C#N)c2)cc1C#Cc1cnc2c(Nc3cnn(C)c3)cccn12` [Example 24, N-(3-(2-cyanopropan-2-yl)-5-(4-methyl-3-oxopiperazin-1-yl)phenyl)-2-fluoro-4-methyl-5-((8-((1-methyl-1H-pyrazol-4-yl)amino)imidazo[1,2-a]pyridin-3-yl)ethynyl)benzamide], the GI50 is 500 to 5000 nM in the assay on Parental (Ba/F3); 50 to 500 nM with T315I-Bcr-Abl (Ba/F3); < 10 nM in the assay on TCCS cells; 100 nM in the assay on T315I-TCCS cells; 100 nM in the assay on T315I-KOPM28 cells; < 10 nM in the assay on KOPM28 cells.
On to `Cc1cc(F)c(C(=O)Nc2cc(N3CCC(N4CCN(C)CC4)CC3)cc(C(C)(C)C#N)c2)cc1C#Cc1cnc2c(Nc3cnn(C)c3)cccn12` [Example 25, N-(3-(2-cyanopropan-2-yl)-5-(4-(4-methylpiperazin-1-yl)piperidin-1-yl)phenyl)-2-fluoro-4-methyl-5-((8-((1-methyl-1H-pyrazol-4-yl)amino)imidazo[1,2-a]pyridin-3-yl)ethynyl)benzamide], for which the GI50 with Parental (Ba/F3) was 500 to 5000 nM; in the assay with T315I-Bcr-Abl (Ba/F3), 50 to 500 nM; in the assay on TCCS cells, < 10 nM; in the assay on T315I-TCCS cells it was > 100 nM; in the assay with T315I-KOPM28 cells, 100 nM; in the assay on KOPM28 cells, < 10 nM.
Regarding `Cc1cc(F)c(C(=O)Nc2cc(Oc3ccncc3)cc(C(C)(C)C#N)c2)cc1C#Cc1cnc2c(Nc3cnn(C)c3)cccn12` [Example 26, N-(3-(2-cyanopropan-2-yl)-5-(pyridin-4-yloxy)phenyl)-2-fluoro-4-methyl-5-((8-((1-methyl-1H-pyrazol-4-yl)amino)imidazo[1,2-a]pyridin-3-yl)ethynyl)benzamide], the GI50 in the assay on Parental (Ba/F3) was > 5000 nM; in the assay on T315I-Bcr-Abl (Ba/F3), < 50 nM; with TCCS cells it was < 10 nM; in the assay with T315I-TCCS cells it was < 10 nM; with T315I-KOPM28 cells, 100 nM; in the assay with KOPM28 cells, < 10 nM.
Take `Cc1cc(F)c(C(=O)Nc2cc(CN3CCN(C)CC3)cc(C(C)(C)C#N)c2)cc1C#Cc1cnc2c(Nc3cnn(C)c3)cccn12` [Example 27, N-(3-(2-cyanopropan-2-yl)-5-((4-methylpiperazin-1-yl)methyl)phenyl)-2-fluoro-4-methyl-5-((8-((1-methyl-1H-pyrazol-4-yl)amino)imidazo[1,2-a]pyridin-3-yl)ethynyl)benzamide]: the GI50 was 500 to 5000 nM with Parental (Ba/F3); < 50 nM with T315I-Bcr-Abl (Ba/F3); < 10 nM in the assay with TCCS cells; 100 nM in the assay with T315I-TCCS cells; 100 nM in the assay on T315I-KOPM28 cells; < 10 nM with KOPM28 cells.
Turning to `Cc1cc(F)c(C(=O)Nc2cc(CN3CCOCC3)cc(C(C)(C)C#N)c2)cc1C#Cc1cnc2c(Nc3cnn(C)c3)cccn12` [Example 28, N-(3-(2-cyanopropan-2-yl)-5-(morpholinomethyl)phenyl)-2-fluoro-4-methyl-5-((8-((1-methyl-1H-pyrazol-4-yl)amino)imidazo[1,2-a]pyridin-3-yl)ethynyl)benzamide], the GI50 with Parental (Ba/F3) was > 5000 nM; with T315I-Bcr-Abl (Ba/F3) it was 50 to 500 nM; in the assay with TCCS cells, < 10 nM; with T315I-TCCS cells it was > 100 nM; in the assay with T315I-KOPM28 cells it was > 100 nM; in the assay on KOPM28 cells, < 10 nM.

These data come from patent US12673945B2, “3-((8-((1H-pyrazol-4-yl)amino)imidazo[1,2-a]pyridin-3-yl)ethinyl)-n-phenylbenzamide derivative, method for preparing same, and pharmaceutical composition containing same as active ingredient for prevention or treatment of cancer” (DAEGU-GYEONGBUK MEDICAL INNOVATION FOUNDATION, priority 2020, dated 2026).
